Key:
Test in all cases: relative viability (nuclei count vs DMSO), 5 days (fraction); higher = more cells survive
[1] = compound: CCN1C(=O)C2=CC(=C(N=C2N(C1=O)C3CC3)N)C(=O)N + CC(=O)Nc1cccc(-n2c(=O)n(C3CC3)c(=O)c3c(Nc4ccc(I)cc4F)n(C)c(=O)c(C)c32)c1 [Trametinib] (partner 0.02 µM)
Method in brief: (§1)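 A single step with final 0.05% Triton X-100, 1% formaldehyde and 1 ug/ml Hoechst fixed the cells and stained nuclei 5 days after treatment. Lung cancer cell lines in 1536-well plates had been treated by pin tool the day after seeding with one drug alone or a fixed anchor-drug dose plus five library-drug doses (not always all listed) in √10 steps, and nuclei were counted on 4× images. Relative viability is the ratio of nuclei in treated wells to nuclei in vehicle wells, taken as the median of duplicate plates.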

[2] = compound: CCN1C(=O)C2=CC(=C(N=C2N(C1=O)C3CC3)N)C(=O)N + CS(=O)(=O)N1CCN(Cc2cc3nc(-c4cccc5[nH]ncc45)nc(N4CCOCC4)c3s2)CC1 [Pictilisib] (partner 1 µM)
Method in brief: as §1

[3] = compound: CCN1C(=O)C2=CC(=C(N=C2N(C1=O)C3CC3)N)C(=O)N + C[C@@H](Oc1cc(-c2cnn(C3CCNCC3)c2)cnc1N)c1c(Cl)ccc(F)c1Cl [Crizotinib] (partner 1 µM)
Method in brief: as §1

[4] = compound: CCN1C(=O)C2=CC(=C(N=C2N(C1=O)C3CC3)N)C(=O)N + NC(=O)Nc1cc(-c2cccc(F)c2)sc1C(=O)N[C@H]1CCCNC1 [AZD7762] (partner 0.2 µM)
Method in brief: as §1

[5] = compound: CCN1C(=O)C2=CC(=C(N=C2N(C1=O)C3CC3)N)C(=O)N + O=C(c1cc(Cc2n[nH]c(=O)c3ccccc23)ccc1F)N1CCN(C(=O)C2CC2)CC1 [Olaparib] (partner 8 µM)
Method in brief: as §1

| Cell Line | relative viability ([1]; first compound 0.253 µM) | relative viability ([1]; first compound 0.8 µM) | relative viability ([1]; first compound 2.53 µM) | relative viability ([1]; first compound 8 µM) | relative viability ([2]; first compound 0.253 µM) | relative viability ([2]; first compound 0.8 µM) | relative viability ([2]; first compound 2.53 µM) | relative viability ([2]; first compound 8 µM) | relative viability ([3]; first compound 0.253 µM) | relative viability ([3]; first compound 0.8 µM) | relative viability ([3]; first compound 2.53 µM) | relative viability ([3]; first compound 8 µM) | relative viability ([4]; first compound 0.253 µM) | relative viability ([4]; first compound 0.8 µM) | relative viability ([4]; first compound 2.53 µM) | relative viability ([4]; first compound 8 µM) | relative viability ([5]; first compound 0.253 µM) | relative viability ([5]; first compound 0.8 µM) | relative viability ([5]; first compound 2.53 µM) | relative viability ([5]; first compound 8 µM) |
| --- | --- | --- | --- | --- | --- | --- | --- | --- | --- | --- | --- | --- | --- | --- | --- | --- | --- | --- | --- | --- |
| ChaGo-K-1 | 0.922 | 0.951 | 0.861 | 0.875 | 0.916 | 0.563 | 0.91 | 0.766 | 1.14 | 1.13 | 1.14 | 1.41 | 0.873 | 0.863 | 0.89 | 0.872 | 0.442 | 0.437 | 0.404 | 0.434 |
| NCI-H2342 | 0.795 | 0.8 | 0.756 | 0.857 | – | – | – | – | – | – | – | – | 0.527 | 0.426 | 0.514 | 0.503 | 0.42 | 0.467 | 0.421 | 0.492 |
| SK-MES-1 | 0.625 | 0.533 | 0.557 | 0.517 | 0.358 | 0.403 | 0.323 | 0.37 | 1.02 | 0.966 | 0.926 | 0.946 | – | – | – | – | 0.77 | 0.76 | 0.713 | 0.665 |
| SW 1573 | 0.548 | 0.601 | 0.599 | 0.52 | 0.51 | 0.519 | 0.464 | 0.551 | 0.855 | 0.744 | 0.696 | 0.772 | – | – | – | – | 0.748 | 0.431 | 0.519 | 0.532 |
| ABC-1 | – | – | – | – | 0.761 | 0.667 | 0.82 | 0.699 | 1.21 | 1.04 | 1.18 | 1.32 | 0.479 | – | 1.15 | 0.954 | 0.92 | – | 1.05 | 0.742 |
| COR-L 105 | 0.478 | 0.428 | 0.378 | 0.47 | 0.453 | 0.366 | 0.412 | 0.369 | 0.915 | 0.726 | 0.732 | 0.995 | – | – | – | – | 0.728 | 0.768 | 0.779 | 0.677 |
| NCI-H2009 | 0.274 | 0.271 | 0.262 | 0.281 | 0.874 | 0.803 | 0.8 | 0.771 | 1.05 | 1.03 | 0.99 | 1.05 | – | – | – | – | 0.688 | 0.665 | 0.667 | 0.71 |
| NCI-H1703 | – | – | – | – | 0.243 | 0.224 | 0.275 | 0.269 | 0.718 | 0.727 | 0.565 | 1.04 | 0.13 | 0.126 | 0.164 | 0.137 | 0.702 | 0.616 | 0.384 | 0.379 |
| NCI-H2023 | 0.587 | 0.61 | 0.503 | 0.589 | 0.229 | 0.218 | 0.23 | 0.26 | 0.639 | 0.622 | 0.585 | 0.606 | – | – | – | – | 0.463 | 0.477 | 0.451 | 0.487 |
| NCI-H1650 | 0.572 | 0.571 | 0.563 | 0.611 | 0.501 | 0.547 | 0.521 | 0.589 | 0.982 | 0.897 | 1.11 | 1.2 | – | – | – | – | 0.707 | 0.665 | 0.714 | 0.733 |
| NCI-H1395 | 1.13 | 0.94 | 1.04 | 1.07 | 0.611 | 0.583 | 0.636 | 0.63 | – | – | – | – | 0.42 | 0.388 | 0.428 | 0.397 | 0.43 | 0.481 | 0.457 | 0.491 |
| NCI-H1793 | 0.428 | 0.387 | 0.433 | 0.445 | 0.267 | 0.308 | – | 0.303 | – | – | – | – | 0.409 | 0.408 | 0.649 | 0.501 | 0.921 | 0.731 | 0.851 | 0.875 |
| NCI-H522 | 0.712 | 0.797 | 0.792 | 0.709 | – | – | – | – | – | – | – | – | 0.726 | 0.735 | 0.952 | 0.922 | 0.6 | 0.678 | 0.555 | 0.65 |
| NCI-H520 | 0.65 | 0.692 | 0.657 | 0.676 | 0.273 | 0.302 | 0.317 | 0.27 | 0.698 | 0.64 | 0.645 | 1.29 | – | – | – | – | 0.335 | 0.341 | 0.356 | 0.3 |
| SK-LU-1 | 0.482 | 0.555 | 0.516 | 0.489 | 0.559 | 0.581 | 0.717 | 0.614 | 1.11 | 0.749 | 0.805 | 0.931 | – | – | – | – | 0.458 | 0.446 | 0.429 | 0.493 |
| UMC-11 | 0.798 | 0.701 | 0.695 | 0.636 | 0.891 | 0.865 | 0.767 | 0.853 | 0.619 | 0.632 | 0.584 | 0.611 | – | – | – | – | 0.376 | 0.337 | 0.312 | 0.365 |
| SW 900 | 0.81 | 0.864 | 0.75 | 0.641 | – | – | – | – | – | – | – | – | 0.601 | 0.643 | 0.635 | 0.633 | 0.84 | 1.1 | 0.955 | 0.928 |
| NCI-H661 | 0.591 | 0.567 | 0.546 | 0.561 | 0.401 | 0.368 | 0.45 | 0.395 | 1.05 | 1.05 | 0.987 | 1.06 | – | – | – | – | 0.774 | 0.782 | 0.672 | 0.748 |
| NCI-H2228 | 0.37 | 0.597 | 0.359 | 0.594 | 0.393 | 0.368 | 0.353 | 0.4 | 0.452 | 0.535 | 0.433 | 0.507 | – | – | – | – | 0.827 | 0.723 | 0.577 | 0.282 |
| COR-L23 | 0.581 | 0.584 | 0.591 | 0.592 | 0.814 | 0.751 | 0.729 | 0.947 | 0.594 | 0.635 | 0.567 | 0.695 | – | – | – | – | 0.413 | 0.319 | 0.19 | 0.398 |

— the supplement of paper PMC10307832
